Measured values taken from article PMC12796733 (The Journal of Biological Chemistry, 2025).

Assays:
Format in all cases: binding
NEAT2 [1] = molecular target: T1, NEAT2 (Streptococcus pyogenes, UniProt Q99YA0); assay: isothermal titration calorimetry; conditions: PBS pH 7.4, 5% DMSO, 25 °C; one set of sites
T1 construct: gene shr; NEAT2 domain, Ala970-Thr1129 of 1275-residue Shr; E. coli BL21(DE3)

NEAT2 [2] = molecular target: T1, NEAT2; assay: differential scanning calorimetry; conditions: PBS; 1 mg/ml protein
Linker-NEAT1 [3] = molecular target: T2, Linker-NEAT1 (Streptococcus pyogenes, UniProt Q99YA0); assay: isothermal titration calorimetry; conditions: PBS pH 7.4, 5% DMSO, 25 °C; one set of sites
T2 construct: gene shr; linker + NEAT1 domain, Ser294-Gly502 of 1275-residue Shr; E. coli BL21(DE3)

Linker-NEAT1 [4] = molecular target: T2, Linker-NEAT1; assay: differential scanning calorimetry; conditions: PBS; 1 mg/ml protein
Shp = molecular target: T3, Shp (Streptococcus pyogenes, UniProt Q06A48); assay: isothermal titration calorimetry; conditions: PBS pH 7.4, 5% DMSO, 25 °C; one set of sites
T3 construct: E. coli BL21(DE3)
T3 sequence (Q06A48 entry or part of it): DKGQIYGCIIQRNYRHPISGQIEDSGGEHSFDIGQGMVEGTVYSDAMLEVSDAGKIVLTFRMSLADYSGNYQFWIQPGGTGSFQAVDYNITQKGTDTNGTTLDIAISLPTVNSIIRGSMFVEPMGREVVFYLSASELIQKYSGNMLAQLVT

T2 sequence (Q99YA0 294-502): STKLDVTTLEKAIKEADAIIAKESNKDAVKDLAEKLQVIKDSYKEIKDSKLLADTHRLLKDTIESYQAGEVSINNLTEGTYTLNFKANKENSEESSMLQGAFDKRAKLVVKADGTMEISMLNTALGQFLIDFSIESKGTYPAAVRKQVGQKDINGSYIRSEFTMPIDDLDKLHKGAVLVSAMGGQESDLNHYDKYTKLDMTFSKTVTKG
T1 sequence (Q99YA0 970-1129): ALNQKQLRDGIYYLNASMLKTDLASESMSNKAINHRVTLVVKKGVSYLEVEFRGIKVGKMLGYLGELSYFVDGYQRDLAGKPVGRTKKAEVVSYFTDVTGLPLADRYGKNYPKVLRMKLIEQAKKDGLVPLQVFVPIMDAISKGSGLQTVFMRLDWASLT

Which results are given for heme?
Kd (NEAT2 [1]): 12.7 ± 10.3 nM; Tm with heme (apo 58.1 °C) (NEAT2 [2]): 64.0 °C; Kd (Linker-NEAT1 [3]): 32 ± 23.4 nM; Tm with heme (apo 34.6 °C) (Linker-NEAT1 [4]): 41.1 °C; Kd (Shp): < 0.81 nM
